The supplement of paper PMC10307832

Assays:
Experiment in all cases: relative viability (nuclei count vs DMSO), 5 days (fraction); higher = more cells survive
A-427 = tested on: A-427
Procedure, shortened: (§1)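 For relative viability, nuclei counts in treated wells were divided by those in vehicle wells. Lung cancer cell lines had been pin-tool dosed in 1536-well plates the day after seeding and cultured for 5 days, then fixed and stained in one step (final 0.05% Triton X-100, 1% formaldehyde, 1 ug/ml Hoechst) and imaged at 4×. Doses were one drug alone or a fixed anchor-drug dose plus five library-drug doses (not always all listed) in √10 steps, and values are duplicate-plate medians.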

COR-L 105 = tested on: COR-L 105
Procedure, shortened: as §1

EPLC-272H = tested on: EPLC-272H
Procedure, shortened: as §1

HCC-15 = tested on: HCC-15
Procedure, shortened: as §1

HCC-44 = tested on: HCC-44
Procedure, shortened: as §1

LC-2-ad = tested on: LC-2-ad
Procedure, shortened: as §1

LCLC-97TM1 = tested on: LCLC-97TM1
Procedure, shortened: as §1

NCI-H1395 = tested on: NCI-H1395
Procedure, shortened: as §1

NCI-H1734 = tested on: NCI-H1734
Procedure, shortened: as §1

NCI-H1792 = tested on: NCI-H1792
Procedure, shortened: as §1

NCI-H1915 = tested on: NCI-H1915
Procedure, shortened: as §1

NCI-H1975 = tested on: NCI-H1975
Procedure, shortened: as §1

NCI-H2023 = tested on: NCI-H2023
Procedure, shortened: as §1

NCI-H2342 = tested on: NCI-H2342
Procedure, shortened: as §1

NCI-H2347 = tested on: NCI-H2347
Procedure, shortened: as §1

NCI-H2405 = tested on: NCI-H2405
Procedure, shortened: as §1

NCI-H520 = tested on: NCI-H520
Procedure, shortened: as §1

NCI-H838 = tested on: NCI-H838
Procedure, shortened: as §1

SW 1573 = tested on: SW 1573
Procedure, shortened: as §1

SW 900 = tested on: SW 900
Procedure, shortened: as §1

UMC-11 = tested on: UMC-11
Procedure, shortened: as §1

## CCNC(=O)c1noc(-c2cc(C(C)C)c(O)cc2O)c1-c1ccc(CN2CCOCC2)cc1 [Luminespib] + Nc1ncn([C@H]2C[C@H](O)[C@@H](CO)O2)c(=O)n1 [Decitabine] (partner 2 µM)
A-427; first compound 0.002 µM
  relative viability: 0.611
A-427; first compound 0.006325 µM
  relative viability: 0.514
A-427; first compound 0.02 µM
  relative viability: 0.446
A-427; first compound 0.06325 µM
  relative viability: 0.599
A-427; first compound 0.2 µM
  relative viability: 0.269
COR-L 105; first compound 0.002 µM
  relative viability: 0.674
COR-L 105; first compound 0.006325 µM
  relative viability: 0.654
COR-L 105; first compound 0.02 µM
  relative viability: 0.567
COR-L 105; first compound 0.06325 µM
  relative viability: 0.234
COR-L 105; first compound 0.2 µM
  relative viability: 0.334
EPLC-272H; first compound 0.002 µM
  relative viability: 0.393
EPLC-272H; first compound 0.006325 µM
  relative viability: 0.337
EPLC-272H; first compound 0.02 µM
  relative viability: 0.311
EPLC-272H; first compound 0.06325 µM
  relative viability: 0.282
EPLC-272H; first compound 0.2 µM
  relative viability: 0.106
HCC-15; first compound 0.002 µM
  relative viability: 0.695
HCC-15; first compound 0.006325 µM
  relative viability: 0.565
HCC-15; first compound 0.02 µM
  relative viability: 0.73
HCC-15; first compound 0.06325 µM
  relative viability: 0.144
HCC-15; first compound 0.2 µM
  relative viability: 0.14
HCC-44; first compound 0.002 µM
  relative viability: 0.969
HCC-44; first compound 0.006325 µM
  relative viability: 0.953
HCC-44; first compound 0.02 µM
  relative viability: 0.959
HCC-44; first compound 0.06325 µM
  relative viability: 0.954
HCC-44; first compound 0.2 µM
  relative viability: 0.863
LC-2-ad; first compound 0.002 µM
  relative viability: 0.886
LC-2-ad; first compound 0.006325 µM
  relative viability: 0.766
LC-2-ad; first compound 0.02 µM
  relative viability: 0.754
LC-2-ad; first compound 0.06325 µM
  relative viability: 0.778
LC-2-ad; first compound 0.2 µM
  relative viability: 0.786
LCLC-97TM1; first compound 0.002 µM
  relative viability: 0.249
LCLC-97TM1; first compound 0.006325 µM
  relative viability: 0.258
LCLC-97TM1; first compound 0.06325 µM
  relative viability: 0.233
LCLC-97TM1; first compound 0.2 µM
  relative viability: 0.154
NCI-H1395; first compound 0.002 µM
  relative viability: 0.745
NCI-H1395; first compound 0.006325 µM
  relative viability: 0.694
NCI-H1395; first compound 0.02 µM
  relative viability: 0.634
NCI-H1395; first compound 0.06325 µM
  relative viability: 0.382
NCI-H1395; first compound 0.2 µM
  relative viability: 0.357
NCI-H1734; first compound 0.002 µM
  relative viability: 0.489
NCI-H1734; first compound 0.006325 µM
  relative viability: 0.469
NCI-H1734; first compound 0.02 µM
  relative viability: 0.448
NCI-H1734; first compound 0.06325 µM
  relative viability: 0.251
NCI-H1734; first compound 0.2 µM
  relative viability: 0.159
NCI-H1792; first compound 0.002 µM
  relative viability: 0.521
NCI-H1792; first compound 0.006325 µM
  relative viability: 0.458
NCI-H1792; first compound 0.02 µM
  relative viability: 0.429
NCI-H1792; first compound 0.06325 µM
  relative viability: 0.078
NCI-H1792; first compound 0.2 µM
  relative viability: 0.0722
NCI-H1915; first compound 0.002 µM
  relative viability: 0.258
NCI-H1915; first compound 0.006325 µM
  relative viability: 0.278
NCI-H1915; first compound 0.02 µM
  relative viability: 0.254
NCI-H1915; first compound 0.06325 µM
  relative viability: 0.24
NCI-H1915; first compound 0.2 µM
  relative viability: 0.21
NCI-H1975; first compound 0.002 µM
  relative viability: 0.393
NCI-H1975; first compound 0.006325 µM
  relative viability: 0.346
NCI-H1975; first compound 0.02 µM
  relative viability: 0.355
NCI-H1975; first compound 0.06325 µM
  relative viability: 0.127
NCI-H1975; first compound 0.2 µM
  relative viability: 0.144
NCI-H2023; first compound 0.002 µM
  relative viability: 0.242
NCI-H2023; first compound 0.006325 µM
  relative viability: 0.218
NCI-H2023; first compound 0.02 µM
  relative viability: 0.136
NCI-H2023; first compound 0.06325 µM
  relative viability: 0.0602
NCI-H2023; first compound 0.2 µM
  relative viability: 0.0539
NCI-H2342; first compound 0.002 µM
  relative viability: 0.648
NCI-H2342; first compound 0.006325 µM
  relative viability: 0.82
NCI-H2342; first compound 0.02 µM
  relative viability: 0.546
NCI-H2342; first compound 0.06325 µM
  relative viability: 0.821
NCI-H2342; first compound 0.2 µM
  relative viability: 0.503
NCI-H2347; first compound 0.002 µM
  relative viability: 0.603
NCI-H2347; first compound 0.006325 µM
  relative viability: 0.567
NCI-H2347; first compound 0.02 µM
  relative viability: 0.656
NCI-H2347; first compound 0.06325 µM
  relative viability: 0.431
NCI-H2347; first compound 0.2 µM
  relative viability: 0.373
NCI-H2405; first compound 0.002 µM
  relative viability: 0.79
NCI-H2405; first compound 0.02 µM
  relative viability: 0.627
NCI-H2405; first compound 0.06325 µM
  relative viability: 0.297
NCI-H2405; first compound 0.2 µM
  relative viability: 0.191
NCI-H520; first compound 0.002 µM
  relative viability: 0.533
NCI-H520; first compound 0.006325 µM
  relative viability: 0.506
NCI-H520; first compound 0.02 µM
  relative viability: 0.317
NCI-H520; first compound 0.06325 µM
  relative viability: 0.167
NCI-H520; first compound 0.2 µM
  relative viability: 0.152
NCI-H838; first compound 0.002 µM
  relative viability: 0.495
NCI-H838; first compound 0.006325 µM
  relative viability: 0.491
NCI-H838; first compound 0.02 µM
  relative viability: 0.422
NCI-H838; first compound 0.06325 µM
  relative viability: 0.176
NCI-H838; first compound 0.2 µM
  relative viability: 0.193
SW 1573; first compound 0.002 µM
  relative viability: 0.569
SW 1573; first compound 0.006325 µM
  relative viability: 0.456
SW 1573; first compound 0.02 µM
  relative viability: 0.159
SW 1573; first compound 0.06325 µM
  relative viability: 0.072
SW 1573; first compound 0.2 µM
  relative viability: 0.0827
SW 900; first compound 0.002 µM
  relative viability: 0.478
SW 900; first compound 0.006325 µM
  relative viability: 0.472
SW 900; first compound 0.02 µM
  relative viability: 0.417
SW 900; first compound 0.06325 µM
  relative viability: 0.156
SW 900; first compound 0.2 µM
  relative viability: 0.159
UMC-11; first compound 0.002 µM
  relative viability: 0.604
UMC-11; first compound 0.006325 µM
  relative viability: 0.569
UMC-11; first compound 0.02 µM
  relative viability: 0.334
UMC-11; first compound 0.06325 µM
  relative viability: 0.56
UMC-11; first compound 0.2 µM
  relative viability: 0.23
